Where “and” joins values, the source holds several entries; their conditions need not be identical. Identical values can stand only once.
Columns and labels:
LptB2F^E249KGC = experiment: LPS release assay, LptB2F(E249K)GC; assay type: biochemical, Acinetobacter baylyi; settings: LptF E249K complex, E. coli LPS
Protocol: (§1) Proteoliposomes were prepared as described previously. Aqueous E. coli polar lipid extract (Avanti Polar Lipids) (30 mg ml^−1) and aqueous LPS from E. coli EH100 (Ra mutant; Sigma) (2 mg ml^−1) were sonicated briefly for homogenization. For experiments testing the effect of LPS structure, we used LPS isolated from either GKM374 (BL21DE3 eptA::catR arnA::kanR eptC::gentR) or TXM418 (BL21DE3 eptA::catR arnA::FRT eptB::gentR lpxM::kanR) as described previously. A mixture of 20 mM Tris-HCl (pH 8.0), 150 mM NaCl, 7.5 mg ml^−1 of E. coli polar lipids, 0.5 mg ml^−1 of LPS and 0.25% DDM was prepared and kept on ice for 10 min. Purified LptB2FGC or LptB2FG was added to a final concentration of 0.86 μM and the mixture was left on ice for 20 min. The mixture was diluted 100-fold with cold 20 mM Tris-HCl (pH 8.0) and 150 mM NaCl and kept on ice for 20 min. The proteoliposomes were pelleted (300,000g, 2 h, 4 °C), resuspended in 20 mM Tris-HCl (pH 8.0) and 150 mM NaCl, diluted 100× and centrifuged (300,000g, 2 h, 4 °C). The pellets were resuspended in a mixture of 20 mM Tris-HCl (pH 8.0), 150 mM NaCl and 10% glycerol (250 μl per 100 μl of the original predilution solution), homogenized by sonication, flash frozen and stored at −80 °C until use.
The amounts of release of LPS from proteoliposomes to LptA were measured as previously described. […]

Acinetobacter LptB2FGC = experiment: LPS release assay from proteoliposomes to LptA, wild-type LptB2FGC; assay type: biochemical, Acinetobacter baylyi; settings: for Inhibition of LPS release (transport) to LptA: wild-type LptB2FGC, E. coli LPS, 60 min
Protocol: as §1
The amounts of release of LPS from proteoliposomes to LptA were measured as previously described. Assays used 60% proteoliposomes (by volume) in a solution containing 50 mM Tris-HCl (pH 8.0), 500 mM NaCl, 10% glycerol and 2 µM LptA^I36pBPA. Reaction mixtures were incubated with drug for 10 min at room temperature, as applicable. Reactions were then initiated by the addition of ATP and MgCl2 (final concentrations of 5 mM and 2 mM, respectively) and proceeded at 30 °C. Aliquots (25 µl) were removed from the reaction mixtures and irradiated with ultraviolet (UV) light (365 nm) on ice for 10 min using a B-100AP lamp (Fisher Scientific). Following UV irradiation, 25 µl of 2× SDS–PAGE sample loading buffer was added, samples were boiled for 10 min and proteins were separated using Tris-HCl 4–20% polyacrylamide gradient gels with Tris-glycine running buffer. Immunoblotting was conducted as described above.

[1] = tested on: Acinetobacter baylyi ΔLpxC; assay type: cell-based; settings: A. baylyi ΔLpxC (lacking LPS)
Protocol: (§2) Culture, genetic manipulation and MIC measurements of A. baylyi ADP1 were conducted according to previously reported procedures[46],[51]. Point mutants were constructed in a two-step procedure following ref. [52] with the introduction and excision of the integration cassette at codon 66 of pepA, wherein the excising fragment of otherwise wild-type chromosomal DNA sequence from codon 406 of pepA to codon 193 of lptG bore the desired mutation and the resulting clones were screened by amplicon sequencing from codon 81 of HolC to codon 501 of GpmI, whereas lpxM deletion was achieved following the same procedure except that the integration cassette insertion and excision removed codons 79–279 of lpxM to avoid interference with neighbouring and overlapping genes that a larger deletion may risk and replaced codon 78 with an ochre stop codon to prevent a readthrough resulting in an aberrant fusion, with the excising fragment sequence spanning from codon 211 of sppA to codon 497 of ComA and verified by amplicon sequencing from codon 94 of MhpC to codon 327 of ComA as well as by absence of a PCR product corresponding to a region spanning codons 79 to 279 of lpxM to check for duplications. A deletion of the lon protease was made in the same manner to produce the stain used for expression and purification of LptB2FG to mimic the BL21 strain of E. coli used in the rest of purifications, for which the region encompassing 72 base pairs (bp) upstream of the lon start codon and 1 bp downstream of the lon stop codon was excised after being replaced with the same integration cassette, yielding a markerless deletion, with the excising fragment sequence spanning from codon 491 of ArnT to codon 40 of 45_DOPA_Dioxygenase and verified by amplicon sequencing spanning from codon 322 of ArnT to codon 221 of 45_DOPA_Dioxygenase as well as by absence of a PCR product corresponding to a region spanning from codons 328 to 768 of lon to check for duplications. Following amplicon confirmation, three validated isolates of each constructed mutant were tested for susceptibility to a panel of antibiotics with […] known mechanisms of action as a further validation step to ensure congruence of phenotypes across replicates, which was confirmed in all cases and one of the validated replicates was later used for MIC measurements reported here.
(§3) MIC determinations were performed by broth microdilution in line with CLSI guidelines (CLSI M07-A11 2018). Bacterial inocula were prepared by diluting overnight liquid cultures in LB. Antibacterial panels containing antibacterial solutions were inoculated with an appropriate volume of inoculum to give a final inoculum of about 5 × 10^5 c.f.u. ml^−1 and desired test concentrations of antibacterial agents in standard 96-well plates with 0.1 ml of culture per well. The test plates were incubated for 20–24 h and optical density (OD600) was recorded using a plate reader. MIC values corresponded to the lowest compound concentration inhibiting bacterial growth beyond which OD ceased to decrease.

E. coli LptB2FGC = target: T1, E. coli LptB2FGC (Escherichia coli, UniProt P0ADC6+P0AF98); experiment: LPS release assay, E. coli LptB2FGC; assay type: biochemical; settings: wild-type E. coli LptB2FGC, 60 min
T1 construct: made in house
Protocol: The amounts of release of LPS from proteoliposomes to LptA were measured as previously described[20]. Assays used 60% proteoliposomes (by volume) in a solution containing 50 mM Tris-HCl (pH 8.0), 500 mM NaCl, 10% glycerol and 2 µM LptA^I36pBPA. Reaction mixtures were incubated with drug for 10 min at room temperature, as applicable. Reactions were then initiated by the addition of ATP and MgCl2 (final concentrations of 5 mM and 2 mM, respectively) and proceeded at 30 °C. Aliquots (25 µl) were removed from the reaction mixtures and irradiated with ultraviolet (UV) light (365 nm) on ice for 10 min using a B-100AP lamp (Fisher Scientific).

[2] = tested on: Acinetobacter baylyi LptF(V314L 315del); assay type: cell-based; settings: A. baylyi LptF(V314L 315del)
Protocol: as §2, §3

[3] = tested on: Acinetobacter baylyi LptF(I317N); assay type: cell-based; settings: A. baylyi LptF(I317N)
Protocol: as §2, §3

[4] = tested on: Acinetobacter baylyi LptF(W271R); assay type: cell-based; settings: A. baylyi LptF(W271R)
Protocol: as §2, §3

[5] = tested on: Acinetobacter baylyi LptG(L36Q); assay type: cell-based; settings: A. baylyi LptG(L36Q)
Protocol: as §2, §3

[6] = tested on: Acinetobacter baylyi LptF(E58V); assay type: cell-based; settings: A. baylyi LptF(E58V)
Protocol: as §2, §3

[7] = tested on: Acinetobacter baylyi LptF(E249K); assay type: cell-based; settings: A. baylyi LptF(E249K)
Protocol: as §2, §3

[8] = tested on: Acinetobacter baylyi LptF(R320T); assay type: cell-based; settings: A. baylyi LptF(R320T)
Protocol: as §2, §3

T1 sequence (P0AF98 whole entry): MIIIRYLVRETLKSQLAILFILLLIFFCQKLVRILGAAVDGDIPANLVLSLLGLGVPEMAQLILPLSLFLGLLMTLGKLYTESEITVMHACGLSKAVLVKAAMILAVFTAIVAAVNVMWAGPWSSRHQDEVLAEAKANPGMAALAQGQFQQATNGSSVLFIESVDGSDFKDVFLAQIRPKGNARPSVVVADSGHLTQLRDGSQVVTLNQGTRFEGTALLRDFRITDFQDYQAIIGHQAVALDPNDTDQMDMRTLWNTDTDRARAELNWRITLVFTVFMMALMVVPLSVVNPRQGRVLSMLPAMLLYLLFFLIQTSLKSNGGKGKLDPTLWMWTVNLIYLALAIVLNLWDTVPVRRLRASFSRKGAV
T1 sequence (P0ADC6 whole entry): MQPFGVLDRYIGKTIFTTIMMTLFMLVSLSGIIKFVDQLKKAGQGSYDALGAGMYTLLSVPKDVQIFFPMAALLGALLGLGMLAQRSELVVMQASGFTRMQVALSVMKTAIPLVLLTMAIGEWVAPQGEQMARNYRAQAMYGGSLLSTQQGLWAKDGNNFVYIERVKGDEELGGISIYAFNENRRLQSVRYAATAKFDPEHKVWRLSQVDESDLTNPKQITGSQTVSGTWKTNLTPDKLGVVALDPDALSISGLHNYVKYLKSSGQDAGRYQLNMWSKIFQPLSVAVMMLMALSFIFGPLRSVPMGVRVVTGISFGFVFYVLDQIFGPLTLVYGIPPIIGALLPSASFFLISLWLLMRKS
T1 sequence (P0A9V1 whole entry partner): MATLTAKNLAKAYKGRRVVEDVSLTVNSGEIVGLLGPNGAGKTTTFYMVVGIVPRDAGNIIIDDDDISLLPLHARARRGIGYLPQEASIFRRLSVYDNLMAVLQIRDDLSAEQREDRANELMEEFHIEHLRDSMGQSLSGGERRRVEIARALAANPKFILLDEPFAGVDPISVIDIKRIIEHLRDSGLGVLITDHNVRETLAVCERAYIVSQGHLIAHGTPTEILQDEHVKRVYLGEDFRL
T1 sequence (P0ADV9 whole entry partner): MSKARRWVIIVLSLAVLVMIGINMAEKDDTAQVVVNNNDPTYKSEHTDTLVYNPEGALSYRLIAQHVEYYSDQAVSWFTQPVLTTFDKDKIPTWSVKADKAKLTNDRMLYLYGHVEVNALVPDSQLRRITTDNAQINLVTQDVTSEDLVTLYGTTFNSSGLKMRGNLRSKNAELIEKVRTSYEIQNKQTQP

Row | SMILES | Inhibition of LPS release to LptA (LptB2F^E249KGC) | Fold higher compound concentration at which transport of ΔLpxM LPS was possible vs that inhibiting wild-type LPS transport (Acinetobacter LptB2FGC; LPS from E. coli LpxM deletion strain vs matching wild-type LPS) | Inhibition of LPS release (transport) to LptA (Acinetobacter LptB2FGC) | MIC [1] | Inhibition of LPS transport to LptA (E. coli LptB2FGC) | MIC [2] | MIC [3] | MIC [4] | MIC [5] | MIC [6] | MIC [7] | MIC [8] | Fold less effective than 1 and 2 in LPS release from LptB2FGC to LptA (Acinetobacter LptB2FGC; LptB2FGC with LptC TM helix)
1 | CN1C(=O)[C@H](CCCCN)NC(=O)[C@H](CCCN)NCc2cccnc2Sc2c(Cl)ccc(-c3ccc(N)nc3)c2CNC(=O)[C@@H]1Cc1c[nH]c2ccccc12 [Compound 1] | did not block LPS release | 20 fold | blocked LPS release | > 50 µM and > 40 µg/mL | – | – | – | – | – | – | – | – | –
2 | CN1C(=O)[C@H](CCCCN)NC(=O)[C@H](CCCN)NCc2cccnc2Sc2cccc(-c3ccc(C(=O)O)cc3)c2CNC(=O)[C@@H]1Cc1c[nH]c2ccccc12 [Compound 2, Zosurabalpin] | – | – | – | – | does not inhibits LPS transport | 3 µM and 2 µg/mL | 9 µM and 7 µg/mL | 0.08 µg/mL and 0.1 µM | 0.44 µM and 0.35 µg/mL | 3.4 µM and 2.7 µg/mL | 17 µM and 13 µg/mL | 1.4 µM and 1.1 µg/mL | –
3 | CN1C(=O)[C@H](CCCCN)NC(=O)[C@H](CCCN)NCc2cccnc2Sc2c(Cl)ccc(Cl)c2CNC(=O)[C@@H]1Cc1c[nH]c2ccccc12 [Compound 3] | – | – | not inhibited | – | – | 0.24 µM and 0.18 µg/mL | > 50 µM | 0.07 µg/mL and 0.1 µM | 0.44 µM and 0.33 µg/mL | 14 µM and 10 µg/mL | > 50 µM | 0.24 µM and 0.18 µg/mL | 100 fold
